Data on 26 compounds can be found in patent publication US8853424B2 (Japan Science and Technology Agency, priority 2008, dated 2014).

Assay [1] relates to Truncated N-terminal huntington 150 Q-EGFP-Neuron 2a cells. As to the kind of experiment: Measurement of x-Fold (polyglutamine aggregation inhibitory activity). Type of assay: cell-based. How it is done:
In the present invention, the polyglutamine aggregation inhibitory activity (x-Fold) can be measured, for example, by the method described in the Example.
The number of the aggregated cells, and the total number of cells were counted by Array Scan V T1 (manufactured by Cellomics, Pittuburg, USA), and the ratio of the aggregated cells to the total number of cells was determined (x-Fold). […]

A further assay concerns transglutaminase (TGase). The assay is described as follows: Measurement of TG (TGase inhibitory activity, monodansyl cadaverine / N,N-dimethylcasein fluorescence, FDSS 3000). In kind it is biochemical. Put shortly: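 Compound (1 μL of 10 mM stock) added to 0.1 mL reaction: 100 mM HEPES-NaOH pH 7.5, 1 mM CaCl2, 20 μM monodansyl cadaverine, 0.05 mg/mL N,N-dimethylcasein, 5 μg/mL TGase. Rate of fluorescence change at 340 nm measured; DMSO control set to 100; TG50 is the concentration halving activity.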

[2] abbreviates: polyglutamine aggregation inhibitory activity, Table 1.
Setting [3] is: ratio of aggregated cells to total number of cells, compound 20 μM, 20 hr, almost 1 without compound, smaller = stronger inhibition.
Setting [4] is: TGase activity with compound (10 mM, 1 μL in 0.1 ml enzyme reaction solution), DMSO control taken as 100.
The mark [5] stands for this setting: TGase inhibitory activity value, Table 1.

`NCCOB(c1ccccc1)c1ccc(-c2ccc(B(OCCN)c3ccccc3)s2)s1` [Example 356, 5,5′-(phenylaminoethoxyboryl)-2,2′-dithiophene]: the x-Fold in assay [1] (setting [2]) and in assay [1] (setting [3]) was 1.06 in each case. The “TGase activity remaining (% of DMSO control = 100)” value in the assay with transglutaminase (TGase) (setting [4]) and with transglutaminase (TGase) (setting [5]) was 51 throughout.

As for `NC(=O)C1NCCNC1C(=O)OB(c1ccccc1)c1ccccc1` (stereo not drawn) [Example 193, diphenyl(2-piperazine-3-carboxyamide-carboxy)borane], the x-Fold in assay [1] (setting [2]) and in assay [1] (setting [3]) was 1.03 throughout. Besides, the “TGase activity remaining (% of DMSO control = 100)” value in the assay on transglutaminase (TGase) (setting [4]) and with transglutaminase (TGase) (setting [5]) was 92 each time.

Regarding `Nc1ccccc1SB(c1ccccc1)c1ccccc1` [Example 150, diphenyl-2-aminophenylthioborane], the x-Fold in assay [1] (setting [2]) and in assay [1] (setting [3]) was 0 throughout. Besides, the “TGase activity remaining (% of DMSO control = 100)” value in the assay on transglutaminase (TGase) (setting [4]) and in the assay with transglutaminase (TGase) (setting [5]) was 2 each time.

Consider `OB(c1cc(F)cc(Cl)c1)c1cc(F)cc(Cl)c1` [Example 97, bis(3-chloro-5-fluorophenyl)borinic acid], for which the x-Fold in assay [1] (setting [2]) and in assay [1] (setting [3]) was 0.72 each time. Also, the “TGase activity remaining (% of DMSO control = 100)” value in the assay with transglutaminase (TGase) (setting [4]) and in the assay with transglutaminase (TGase) (setting [5]) was 122 in each case.

For the compound `OB(c1ccccc1)c1ccc(B(O)c2ccccc2)o1` [Example 383, bis(2,5-(phenylhydroxyboryl))furan], the x-Fold in assay [1] (setting [2]) and in assay [1] (setting [3]) was 0.92 throughout. Also, the “TGase activity remaining (% of DMSO control = 100)” value in the assay on transglutaminase (TGase) (setting [4]) and in the assay with transglutaminase (TGase) (setting [5]) was 103 each time.

`CCCCB(CCCC)OC(=O)C(N)CC(N)=O` (stereo not drawn) [Example 183, dibutyl(asparagine-O,N)borane]: the x-Fold in assay [1] (setting [2]) and in assay [1] (setting [3]) was 1.02 throughout. For the same compound, the “TGase activity remaining (% of DMSO control = 100)” value in the assay on transglutaminase (TGase) (setting [4]) and in the assay on transglutaminase (TGase) (setting [5]) was 91 in each case.

With `NCCOB(c1ccccc1)c1ccccc1COCc1ccccc1B(OCCN)c1ccccc1` [Example 148, bis(2,2′-(phenyl-2-aminoethoxyboryl)benzyl)ether], the x-Fold in assay [1] (setting [2]) and in assay [1] (setting [3]) was 1.00 throughout. Moreover, the “TGase activity remaining (% of DMSO control = 100)” value in the assay with transglutaminase (TGase) (setting [4]) and with transglutaminase (TGase) (setting [5]) was 68 throughout.

For `CC(O)C(N)COB(c1ccc(Cl)c(F)c1)c1ccc(Cl)c(F)c1` (stereo not drawn) [Example 238, di(4-chloro-3-fluorophenyl) 2-amino-3-hydroxybutyl borinate], the x-Fold in assay [1] (setting [2]) and in assay [1] (setting [3]) was 1.07 in each case. Also, the “TGase activity remaining (% of DMSO control = 100)” value in the assay with transglutaminase (TGase) (setting [4]) and with transglutaminase (TGase) (setting [5]) was 87 each time.

Consider `Cc1ccc(B(OC(=O)C(N)CC(N)=O)c2ccc(COCc3ccc(B(OC(=O)C(N)CC(N)=O)c4ccc(C)cc4)cc3)cc2)cc1` (stereo not drawn) [Example 449, bis(4,4′-(tolylasparagineboryl)benzyl)ether], for which the x-Fold in assay [1] (polyglutamine aggregation, Truncated N-terminal huntington 150 Q-EGFP-Neuron 2a cells) stood at 0.89; in assay [1] (setting [3]) it was 0.89. Further, the “TGase activity remaining (% of DMSO control = 100)” value in the assay with transglutaminase (TGase) (setting [4]) is given as 92; in the assay with transglutaminase (TGase) (TGase inhibitory activity measurement, unit not given), 92.

With `Cc1cc(B(OCCN)c2cccc(COCc3ccccc3B(OCCN)c3ccc(Cl)c(C)c3)c2)ccc1Cl` [Example 351], the x-Fold in assay [1] (setting [2]) and in assay [1] (setting [3]) was 1.00 in each case. The “TGase activity remaining (% of DMSO control = 100)” value with transglutaminase (TGase) (setting [4]) and in the assay with transglutaminase (TGase) (setting [5]) was 103 in each case.

For `Cc1ccc(B(O)c2ccc(Oc3ccc(B(O)c4ccc(C)c(Cl)c4)cc3)cc2)cc1Cl` [Example 201, 4,4′-di((3-chloro-4-methylphenyl 2-hydroxyboryl)phenyl)ether], the x-Fold in assay [1] (setting [3]) is recorded as 0.57. In the assay with transglutaminase (TGase) (setting [4]), the “TGase activity remaining (% of DMSO control = 100)” value came out at 99.

`Cc1ccc(NCCOBc2ccc(COCc3ccc(BOCCNc4ccc(C)cc4)cc3)cc2)cc1` [Example 362, bis(4-(4-methylphenylaminoethoxyboryl)benzyl)ether]: the x-Fold in assay [1] (setting [2]) and in assay [1] (setting [3]) was 1.08 throughout. Also, the “TGase activity remaining (% of DMSO control = 100)” value in the assay on transglutaminase (TGase) (setting [4]) and in the assay on transglutaminase (TGase) (setting [5]) was 108 in each case.

For the compound `NCCOB(c1ccccc1)c1ccc(COCc2ccc(B(OCCN)c3ccc(COCc4ccc(B(OCCN)c5ccccc5)cc4)cc3)cc2)cc1` [Example 189, bis((4,4′-phenylaminoethoxyboryl)benzyloxybenzyl)aminoethoxyborane], the x-Fold in assay [1] (setting [2]) and in assay [1] (setting [3]) was 0.94 in each case. The “TGase activity remaining (% of DMSO control = 100)” value with transglutaminase (TGase) (setting [4]) and with transglutaminase (TGase) (setting [5]) was 119 throughout.

With `Cc1ccc(B(OC(=O)C(N)CCC(N)=O)c2ccc(C)c(Cl)c2)cc1Cl` (stereo not drawn) [Example 182, di(3-chloro-4-methylphenyl)(glutaminate-O,N)borane], the x-Fold in assay [1] (setting [2]) and in assay [1] (setting [3]) was 1.01 throughout. In addition, the “TGase activity remaining (% of DMSO control = 100)” value with transglutaminase (TGase) (setting [4]) and in the assay with transglutaminase (TGase) (setting [5]) was 137 in each case.

For `O=C(OB(c1ccccc1)c1ccccc1)c1ccccn1` [Example 218, diphenyl(picolinate-O,N)borane], the x-Fold in assay [1] (setting [2]) and in assay [1] (setting [3]) was 0.97 each time. In addition, the “TGase activity remaining (% of DMSO control = 100)” value in the assay with transglutaminase (TGase) (setting [4]) and with transglutaminase (TGase) (setting [5]) was 90 each time.

As for `Cc1ccc(B(OCCN2CCN(CCOB(c3ccc(C)c(Cl)c3)c3ccc(C)c(Cl)c3)CC2)c2ccc(C)c(Cl)c2)cc1Cl` [Example 116, bis(di(3-chloro-4-methylphenyl)boryloxyethyl)piperazine], in assay [1] (setting [3]), the x-Fold is 1.02. In addition, the “TGase activity remaining (% of DMSO control = 100)” value with transglutaminase (TGase) (setting [4]) is recorded as 108.

With `FC(F)(F)c1ccc(C(OB(c2ccccc2)c2ccc(COCc3ccc(B(OC(c4ccc(C(F)(F)F)cc4)c4ccccn4)c4ccccc4)cc3)cc2)c2ccccn2)cc1` (stereo not drawn) [Example 138, bis(2-pyridyl-4-trifluoromethylphenylmethoxyphenylboryl 4-benzyl)ether], the x-Fold in assay [1] (setting [3]) is 0.99. In addition, the “TGase activity remaining (% of DMSO control = 100)” value in the assay with transglutaminase (TGase) (setting [4]) turned out to be 96.

`CN(C)CCOB(c1ccccc1)c1cccc2ccccc12` [Example 203, phenyl naphthyl dimethylaminoethylborinate]: the x-Fold in assay [1] (setting [2]) and in assay [1] (setting [3]) was 0.97 throughout. For the same compound, the “TGase activity remaining (% of DMSO control = 100)” value in the assay on transglutaminase (TGase) (setting [4]) and in the assay with transglutaminase (TGase) (setting [5]) was 97 throughout.

Take `NC(=O)CC[C@H](N)C(=O)OB(c1ccc(Cl)c(F)c1)c1ccc(Cl)c(F)c1` [Example 96, di(3-fluoro-4-chlorophenyl)(glutaminate-O,N)borane]: the x-Fold in assay [1] (setting [2]) and in assay [1] (setting [3]) was 0.86 throughout. Besides, the “TGase activity remaining (% of DMSO control = 100)” value in the assay on transglutaminase (TGase) (setting [4]) and with transglutaminase (TGase) (setting [5]) was 124 each time.

With `NCCOB(c1ccccc1)c1ccc(COCCOc2ccc(B(OCCN)c3ccccc3)cc2)cc1` [Example 380, (4-(phenylaminoethoxyboryl)phenoxyethyl)(4-(phenylaminoethoxyboryl)benzyl)ether], the x-Fold in assay [1] (setting [2]) and in assay [1] (setting [3]) was 0.67 in each case. In addition, the “TGase activity remaining (% of DMSO control = 100)” value in the assay with transglutaminase (TGase) (setting [4]) and in the assay with transglutaminase (TGase) (setting [5]) was 92 each time.

In the case of `NCCOB(c1ccc(C(F)(F)F)cc1)c1c2ccccc2c(B(OCCN)c2ccc(C(F)(F)F)cc2)c2ccccc12` [Example 375], the x-Fold in assay [1] (setting [2]) and in assay [1] (setting [3]) was 1.05 in each case. Moreover, the “TGase activity remaining (% of DMSO control = 100)” value in the assay with transglutaminase (TGase) (setting [4]) and in the assay on transglutaminase (TGase) (setting [5]) was 44 in each case.

`OB(c1ccc(Cl)cc1F)c1ccc(Cl)cc1F` [Example 79, bis(4-chloro-2-fluorophenyl)borinic acid]: the x-Fold in assay [1] (setting [2]) and in assay [1] (setting [3]) was 0.88 throughout. The “TGase activity remaining (% of DMSO control = 100)” value in the assay with transglutaminase (TGase) (setting [4]) and in the assay with transglutaminase (TGase) (setting [5]) was 97 throughout.

For the compound `OB(c1cc(F)c(F)c(F)c1)c1cc(F)c(F)c(F)c1` [Example 81, bis(3,4,5-trifluorophenyl)borinic acid], the x-Fold in assay [1] (setting [2]) and in assay [1] (setting [3]) was 0.92 throughout. Also, the “TGase activity remaining (% of DMSO control = 100)” value in the assay on transglutaminase (TGase) (setting [4]) and in the assay on transglutaminase (TGase) (setting [5]) was 97 each time.

With `NCCCC(N)C(=O)OB(c1ccccc1)c1ccccc1` (stereo not drawn) [Example 179, diphenyl(2,5-diaminopentanate-O,N)borane], the x-Fold was 0.99 in assay [1] (polyglutamine aggregation inhibitory activity, Table 1, listed as 2044) and 0.99 in assay [1] (setting [3]). The “TGase activity remaining (% of DMSO control = 100)” value in the assay with transglutaminase (TGase) (setting [4]) is on record as 127; with transglutaminase (TGase) (TGase inhibitory activity value, Table 1, listed as 2044), 127.

In the case of “diphenyl(tryptophanate-O,N)borane [Example 260]”, the x-Fold in assay [1] (setting [2]) and in assay [1] (setting [3]) was 0.89 in each case. Besides, the “TGase activity remaining (% of DMSO control = 100)” value in the assay with transglutaminase (TGase) (setting [4]) and in the assay with transglutaminase (TGase) (setting [5]) was 106 in each case.

Turning to `CCCCNCCOB(c1cc(Cl)ccc1C)c1cc(Cl)ccc1C` [Example 246, di(5-chloro-2-methylphenyl) 2-butylaminoethylborinate], the x-Fold in assay [1] (setting [3]) was determined as 0.67. Besides, the “TGase activity remaining (% of DMSO control = 100)” value in the assay with transglutaminase (TGase) (setting [4]) turned out to be 94.
